Source: US4088653A, “Tetrahydropyridyl derivatives” (Canadian Patents and Developments Limited, priority 1976, dated 1978)
Like-named read-outs stand apart in the source and are kept apart here.

Experiments:
phenylquinone-writhing = experiment: Analgesic activity, phenylquinone-writhing test; type: in vivo, Swiss albino mice; details: for ED50: Mus musculus, sc, read-out: Ed50 (analgesic activity); for Analgesic activity (in words): mouse, in vivo
Description: (§1) Initially the activity of the compound tested on an animal was determined at a single dose. If the substance was active at this dose, it was subjected to limited repeat testing. If the presence of activity was confirmed by repetition of the testing, a dose response relation was constructed and the effective dose (ED50) determined. If toxicity was encountered with the initial dose, the dose was reduced until one was reached which was tolerated by the animals tested.
The active ingredients were suspended in a solution of physiological saline and "Tween 80" (TM) surfactant. A dose amounting to 10 milliliters of physiological saline solution and active ingredient per kilogram of bodyweight was administered to the mice according to the dosage as set out in Table 2.

carageenan inflamed paw = experiment: Anti-inflammatory activity, carageenan-inflamed hind paw volume; type: in vivo, Sprague-Dawley rats; details: for Response % animals protected, 3 hours after drug / Response % animals protected, 5 hours after drug: subcutaneous, Sprague-Dawley rats; for Anti-inflammatory activity (in words): rat, in vivo
Description: as §1
Substances were administered subcutaneously to Sprague-Dawley rats, weighing 100-120 g. A suspension of 0.03% carageenan was injected under the plantar skin of a hind paw. The increase in volume of the inflamed paw was measured 3 and 5 hours after drug administration.

blood-glucose = experiment: Determination of blood-glucose (hyperglycemic activity); type: in vivo, Wistar rats; details: for Hyperglycemic activity (in words): rat, in vivo; for % change in blood-glucose concentrations: oral, fasted Wistar rats, 4 hours post-treatment
Description: as §1
Substances were suspended in distilled water and were administered orally to over-night fasted Wistar rats. […] (Escalab ® G:15) (Barthelmai and Czok, Klinische Wochenschrift 40: 585 (1962)).

[1] = 32 mg/kg, subcutaneous, Swiss albino mice
[2] = 64 mg/kg, subcutaneous, Swiss albino mice
[3] = 128 mg/kg, subcutaneous, Swiss albino mice
[4] = 256 mg/kg, subcutaneous, Swiss albino mice
[5] = subcutaneous, Swiss albino mice, method of Litchfield and Wilcoxon

Compound | Response % inhibition (phenylquinone-writhing) (phenylquinone-writhing; [1]) [%] | Response % inhibition (phenylquinone-writhing) (phenylquinone-writhing; [2]) [%] | Response % inhibition (phenylquinone-writhing) (phenylquinone-writhing; [3]) [%] | Response % inhibition (phenylquinone-writhing) (phenylquinone-writhing; [4]) [%] | ED50 (phenylquinone-writhing; [5]) [mg/kg] | Analgesic activity (in words) (phenylquinone-writhing) | Response % animals protected, 3 hours after drug (carageenan inflamed paw; 64 mg/kg) [%] | Response % animals protected, 5 hours after drug (carageenan inflamed paw; 64 mg/kg) [%] | Anti-inflammatory activity (in words) (carageenan inflamed paw) | Hyperglycemic activity (in words) (blood-glucose) | other results
CC(=O)Oc1ccccc1C(=O)O [Aspirin (TM), reference compound] | – | – | – | – | – | – | – | – | – | – | ED50 (phenylquinone-writhing): 52 mg/kg
O=C(NN1CC=CCC1)c1ccncc1 [Compound A-13, N-(4-pyridylcarbonylimino)-1,2,5,6-tetrahydropyridine] | 38.6 | 58.0 | 80.8 | 96.0 | 53 | active analgesics | 25 | 75 | striking anti-inflammatory action | demonstrated hyperglycemic activity | Analgesic activity (in words) (phenylquinone-writhing; listed as A13): analgesic; Anti-inflammatory activity (in words) (carageenan inflamed paw; listed as A13): anti-inflammatory; Hyperglycemic activity (in words) (blood-glucose; listed as A13): hyper-
O=C(NN1CC=CCC1)c1cccnc1 [Compound A-14, N-(3-pyridylcarbonylimino)-1,2,5,6-tetrahydropyridine] | 38.9 | 59.2 | 81.2 | 89.6 | 47 | active analgesics | 50 | 0 | – | demonstrated hyperglycemic activity | Analgesic activity (in words) (phenylquinone-writhing; listed as A14): analgesic; Hyperglycemic activity (in words) (blood-glucose; listed as A14): hyper-
O=C(NN1CC=CCC1)c1ccccn1 [Compound A-19, N-(2-pyridylcarbonylimino)-1,2,5,6-tetrahydropyridine] | – | – | 57.3 | – | – | active analgesics | 25 | 75 | striking anti-inflammatory action | demonstrated hyperglycemic activity | Analgesic activity (in words) (phenylquinone-writhing; listed as A19): analgesic; Anti-inflammatory activity (in words) (carageenan inflamed paw; listed as A19): anti-inflammatory; % change in blood-glucose concentrations (blood-glucose; 100 mg/kg): +50%; % change in blood-glucose concentrations (blood-glucose; 200 mg/kg): +50%; Hyperglycemic activity (in words) (blood-glucose; listed as A19): hyper-
O=C(NN1CC=CCC1)c1ccccc1 [Compound A-20, N-(benzoylimino)-1,2,5,6-tetrahydropyridine] | 57.4 | 59.0 | 88.2 | 98.0 | 36 | active analgesics | 25 | 50 | – | – | Response % inhibition (phenylquinone-writhing) (phenylquinone-writhing; 16 mg/kg, subcutaneous, Swiss albino mice): 26.2%; Analgesic activity (in words) (phenylquinone-writhing; listed as A20): analgesic
O=C(NN1CCC=C(CCCO)C1)c1ccccc1 [Compound A-21, N-(benzoylimino)-3-(3^1-hydroxypropyl)-1,2,5,6-tetrahydropyridine] | – | – | 20 | – | – | analgesic (slight) | – | – | – | – | –
O=C(NN1CCC=C(CCCO)C1)c1ccncc1 [Compound A-22, N-(4-pyridylcarbonylimino)-3-(3^1-hydroxypropyl)-1,2,5,6-tetrahydropyridine] | – | – | 43 | – | – | analgesic (slight) | – | – | – | – | –
O=C(NN1CC=C(CCCO)CC1)c1ccncc1 [Compound A-23, N-(4-pyridylcarbonylimino)-4-(3^1-hydroxypropyl)-1,2,5,6-tetrahydropyridine] | – | – | 11 | – | – | – | 25 | 75 | striking anti-inflammatory action | – | Anti-inflammatory activity (in words) (carageenan inflamed paw; listed as A23): anti-inflammatory
COc1ccc2c(c1)c(CC(=O)O)c(C)n2C(=O)c1ccc(Cl)cc1 [Indomethazine (TM), reference compound] | – | – | – | – | – | – | – | – | – | – | Response % animals protected, 3 hours after drug (carageenan inflamed paw; 12 mg/kg): 50%; Response % animals protected, 5 hours after drug (carageenan inflamed paw; 12 mg/kg): 50%
